Marks after values point to notes of the source that are not given here.
How the values were obtained:
Type in all cases: cell-based
Gsα [1] = assay: Content of G protein (Gsα) in C6-2B glioma membranes after antidepressant treatment, quantitative immunoblot
Protocol: (§1) C6-2B cells (between passages 20 and 40) were grown in 175-cm^2 flasks in Dulbecco's modified Eagle medium, 4.5 g of glucose/L, 10% bovine serum, in a 10% CO2 atmosphere, at 37° C. for 3 days after splitting. […] Male Sprague-Dawley rats weighing 150-200 g were fed ad libitum and maintained in a 12-h light/dark cycle. […] 36:803-838, 1989]. […] Rat cerebral cortex membranes were prepared according to the method of Rasenick et al. [Nature, 294:560-562; 1981].
(§2) Rat cortex membrane, C6-2B cell membranes, or Triton extracts of each membrane preparation were subjected to SDS-PAGE followed by electrotransfer to polyvinylidene difluoride (PVDF) membrane. The PVDF membrane was incubated with a phosphate-buffered saline/Tween 20 Buffer (140 mM NaCl, […]. 0.1% Tween 20, pH 7.4) and 3% bovine serum albumin. The membrane was then incubated with polyclonal rabbit antisera against the various G protein subunits [RM (Gsα) or 116 (Gi1, Gi2, Gi3α)] at a 1:25,000 (RM) or 1:5,000 (116) dilution (see below for source of antibodies). […] Immunoreactivity was detected with an enhanced chemiluminescence (ECL) western blot detection system (Amersham) in accord with the manufacturer's instructions. The developed autoradiographs were analyzed by densitometry.
Purified recombinant GsαL (long form of Gsα; 1-10 ng/lane) was subjected to SDS-PAGE and transferred to PVDF membranes. The blots were incubated with antibody against Gsα (RM) and processed by ECL. Films were analyzed on a Molecular Dynamics densitometer, and the volume of each band was quantified and used to make a standard curve.
Experiments were conducted to determine whether Gsα is quantitatively altered by antidepressant therapy. For quantification of Gsα in C6-2B membrane, a standard curve was created using purified recombinant […]. Pure Gsα (1-20 ng/well) was subjected to SDS-PAGE and transferred to a PVDF membrane, Gsα was immunodetected by antisera against the as subunit of G protein.
To estimate the effect of antidepressant treatment on the amount of Gsα in C6-2B membranes, equal amounts (10 μg) of C6-2B glioma membrane proteins in control and chronically (3 days) antidepressant-treated groups were subjected to SDS-PAGE. Gsα was immunodetected by antisera against the αs subunit of G protein.

Gsα [2] = assay: Sequential detergent extraction (Triton X-100 / Triton X-114) of Gsα from C6-2B glioma membranes; details: C6-2B cells, 10 μM, 3 days; mean ± SEM of 4-5 experiments
Protocol: as §1
Membrane proteins were extracted sequentially from C6-2B or rat synaptic membranes as described [Yan et al., J. Neurochem., 66:1489-1495; 1996]. These membranes were stirred on ice in HEPES (15 mM, pH 7.4) containing 1% Triton X-100 for 60 min followed by centrifugation at 100,000 g for 60 min at 4° C. The supernatant was reserved (Triton X-100 extract), and the resulting pellet was resuspended in Tris (15 mM, pH 7.4) containing 1.4% Triton X-114 and 150 mM NaCl. The solution was stirred for 60 min at 4° C. and centrifuged for 30 min at 100,000 g in the cold. The supernatant was saved (Triton X-114 extract). These supernatants and remaining pellet (remainder) were subjected to sodium dodecyl sulfate (SDS)-polyacrylamide gel electophoresis (PAGE) using 10% gels. All of the extraction buffers contained 1 mM PMSF and 1 mM EGTA.
as §2
A membrane-enriched fraction was prepared (see Example 1), and membrane proteins were extracted sequentially with Triton X-100 (Tx 100) and Triton X-114 (Tx 114). Equal amounts of these extracts were subjected to SDS-PAGE and transferred to PVDF membrane. The long and short forms of Gsα (GsαL and GsαS) from different fractions were identified by immunodetection.
Experiments were conducted according to the method set forth in Example 1 to assess the effects of different antidepressants on the detergent extraction of Gsα from C6-2B glioma cells.
The ratios of the percentage of Gsα extracted by the two detergents in the treatment versus control groups were compared and are set forth in Table 2 as percentage of control (i.e., each Triton X-100 extract was compared with the untreated Triton X-100 extract; the same was done for Triton X-114 extracts as well as the remainder).

Goα = assay: Cellular localization of Goα in C6-2B cells, immunofluorescence confocal microscopy; details: 10 μM desipramine 3 days, approximately 500 cells, FIG. 9
Protocol: C6-2B cells (between passages 30 and 50) were plated onto coverslips and allowed to attach overnight in Dulbecco's modified Eagle's medium. 4.5 g/l glucose, 10% bovine serum, and 100 μg/ml penicillin and streptomycin at 37° C. in a humidified 10% CO2 atmosphere. […] Therefore, the latter treatment paradigm was used in these experiments because it was easier to maintain the cell cultures for 3 days. […] The culture media and drug were changed daily. […] After the treatment duration, the cells were incubated in drug-free media for 45 to 60 minutes before fixation.
After treatment, cells were washed once with phosphate-buffered saline (PBS, […] NaCl, 2.6 mM KCl, 5.4 mM NaαPO4 7H2O, pH 7.4) and fixed with ice-cold methanol for 10 minutes. Cells were then washed three times with PBS followed by 2 h of blocking in 5% normal goat serum/0.2% fish skin gelatin in PBS. Primary antibody was added for 1.5 h, Gsα/RM1 (PerkinElmer Life Sciences, Boston, Mass.) 1:50 and Goα (Santa Cruz Biotechnology, Santa Cruz, Calif.) 2 μg/ml, followed by three washes with PBS. Oregon Green-labeled secondary antibody (Molecular Probes, Eugene, Oreg.) was added at a concentration of 8 μg/ml for 1 h followed by three PBS washes. […] Approximately 2100 cells from control and desipramine-treated coverslips were counted by two investigators blind to the experimental conditions over the course of the five experiments. […]

[3] = C6-2B membranes, 10 μM drug for 3 days, mean ± SEM of 4-5 experiments

SMILES | Quantity of G proteins in membrane, treated versus control (Gsα [1]; C6-2B cells, 10 μM, 3 days, p>0.05) | G protein amount, Total (Gsα [1]; [3]) | G protein amount, αsL (Gsα [1]; [3]) | G protein amount, αsS (Gsα [1]; [3]) | GsαL in Triton X-114 extract, % of corresponding value in control group (Gsα [2]) | GsαS in Remainder, % of corresponding value in control group (Gsα [2]) [%] | GsαS in Triton X-100 extract, % of corresponding value in control group (Gsα [2]) | GsαS in Triton X-114 extract, % of corresponding value in control group (Gsα [2]) | Change in the distribution of Goα (Goα)
CNCCC(Oc1ccc(C(F)(F)F)cc1)c1ccccc1 (stereo not drawn) [Fluoxetine, fluoxetine] | no significant differences | 12.49 ± 0.67 ng/10 ug of membrane protein | 7.23 ± 0.56 ng/10 ug of membrane protein | 5.65 ± 0.74 ng/10 ug of membrane protein | 84.4 ± 2.9^b % | 99.7 ± 3.1 | 215.9 ± 30.9^a % | 92.2 ± 1.3^b % | –
CNCCCN1c2ccccc2CCc2ccccc21 [Desipramine, desipramine] | – | – | – | – | – | – | – | – | little if any change
